Laboratory results taken from EP0551518A1, “QUINOLINECARBOXYLIC ACID DERIVATIVE” (NIPPON SHINYAKU COMPANY, LIMITED, priority 1990, dated 1992).
≈ marks a conversion by molar mass, not a printed value. Read-outs that look alike come from different tables or passages of the source.

Legend:
Type in all cases: cell-based
[1] = test system: Bacillus subtilis ATCC 6633; test: Determination of minimal inhibitory concentration of growth (MIC)-1, agar plate dilution method; conditions: ATCC6633; Bacillus subtilis ATCC 6633; agar plate dilution, 10⁶ CFU/ml, 37°C, 18 hours; read-out: MIC
Method: (§1) Method: MIC was determined by the agar plate dilution method in accordance with the standard protocol of Japan Society of Chemotherapy (cf. Chemotherapy 29 (1), 76-79, 1981). Each bacterial culture obtained by 18-hour incubation in a sensitivity assay bouillon medium at 37°C was diluted to 10⁶ CFU/ml with the same medium. Using a microplanter, a sensitivity assay agar medium containing the test drug was inoculated with the diluted culture and incubated at 37°C for 18 hours. The MIC value was then determined. As reference drugs, 6-fluoro-1-methyl-4-oxo-7-(1-piperazinyl)-4H-[1,3]thiazeto[3,2-a]quinoline-3-carboxylic acid (referred to as control), ciprofloxacin (CPFX) and ofloxacin (OFLX) were used.

[2] = test system: Enterococcus faecalis ATCC 29212; test: as above; conditions: ATCC29212; Enterococcus faecalis ATCC 29212; agar plate dilution, 10⁶ CFU/ml, 37°C, 18 hours; read-out: MIC
Method: as §1

Escherichia coli KC-14 = test: as above; conditions: Escherichia coli, KC14, 18 h, 10⁶ CFU/ml, 37°C, read-out: MIC
Method: as §1

[3] = test system: Micrococcus luteus ATCC 9341; test: as above; conditions: ATCC9341; Micrococcus luteus ATCC 9341; agar plate dilution, 10⁶ CFU/ml, 37°C, 18 hours; read-out: MIC
Method: as §1

Proteus vulgaris HX-19 = test: as above; conditions: Proteus vulgaris, HX19, 18 h, Proteus vulgaris HX-19; agar plate dilution, 10⁶ CFU/ml, 37°C, 18 hours; read-out: MIC
Method: as §1

[4] = test system: Pseudomonas aeruginosa IFO 3445; test: as above; conditions: Pseudomonas aeruginosa, IFO3445, 18 h, Pseudomonas aeruginosa IFO 3445; agar plate dilution, 10⁶ CFU/ml, 37°C, 18 hours; read-out: MIC
Method: as §1

[5] = test system: Staphylococcus aureus 209-P JC-1; test: as above; conditions: Staphylococcus aureus 209-P JC-1, agar plate dilution, 10⁶ CFU/ml, 37°C, 18 hours
Method: as §1

[6] = test system: Staphylococcus aureus OWPH 1984 (MRSA); test: as above; conditions: Staphylococcus aureus, MRSA, 18 h, Staphylococcus aureus OWPH 1984 (MRSA); agar plate dilution, 10⁶ CFU/ml, 37°C, 18 hours; read-out: MIC
Method: as §1

[7] = test system: Staphylococcus aureus OWPH 2125 (MRSA, PCA^r ); test: as above; conditions: Staphylococcus aureus OWPH 2125 (MRSA, PCA^r), agar plate dilution, 10⁶ CFU/ml, 37°C, 18 hours
Method: as §1

[8] = test system: Staphylococcus aureus Smith; test: as above; conditions: Staphylococcus aureus Smith; agar plate dilution, 10⁶ CFU/ml, 37°C, 18 hours; read-out: MIC
Method: as §1

[9] = test system: Staphylococcus epider-midis IFO 12993; test: as above; conditions: Staphylococcus, IFO12993, 18 h, Staphylococcus epider-midis IFO 12993; agar plate dilution, 10⁶ CFU/ml, 37°C, 18 hours; read-out: MIC
Method: as §1

S. aureus OWPH 1770 = test: Determination of minimal inhibitory concentration (MIC)-2, new quinolone-resistant MRSA; conditions: Staphylococcus aureus, OWPH1770, 18 h; S. aureus OWPH 1770, new quinolone-resistant and methicillin-resistant; same procedure as Test Example 1
Method: as §1
(§2) The antibacterial activity of the compounds obtained in Example 4, Example 25 and Example 26 of the present invention was assayed by the same procedure as in Test Example 1. As reference drugs, 6-fluoro-1-methyl-4-oxo-7-(1-piperazinyl)-4H-[1,3]-thiazeto[3,2-a]quinoline-3-carboxylic acid (referred to as Control), norfloxacin (NFLX) and tosufloxacin (TFLX) were used.

S. aureus OWPH 1773 = test: as above; conditions: Staphylococcus aureus, OWPH1773, 18 h; S. aureus OWPH 1773, new quinolone-resistant and methicillin-resistant; same procedure as Test Example 1
Method: as §1, §2

S. aureus OWPH 1786 = test: as above; conditions: Staphylococcus aureus, OWPH1786, 18 h; S. aureus OWPH 1786, new quinolone-resistant and methicillin-resistant; same procedure as Test Example 1
Method: as §1, §2

S. aureus OWPH 1792 = test: as above; conditions: Staphylococcus aureus, OWPH1792, 18 h; S. aureus OWPH 1792, new quinolone-resistant and methicillin-resistant; same procedure as Test Example 1
Method: as §1, §2

S. aureus OWPH 1793 = test: as above; conditions: Staphylococcus aureus, OWPH1793, 18 h; S. aureus OWPH 1793, new quinolone-resistant and methicillin-resistant; same procedure as Test Example 1
Method: as §1, §2

S. aureus OWPH 1796 = test: as above; conditions: Staphylococcus aureus, OWPH1796, 18 h; S. aureus OWPH 1796, new quinolone-resistant and methicillin-resistant; same procedure as Test Example 1
Method: as §1, §2

S. aureus OWPH 1799 = test: as above; conditions: Staphylococcus aureus, OWPH1799, 18 h; S. aureus OWPH 1799, new quinolone-resistant and methicillin-resistant; same procedure as Test Example 1
Method: as §1, §2

S. aureus OWPH 2124 = test: as above; conditions: Staphylococcus aureus, OWPH2124, 18 h; S. aureus OWPH 2124, new quinolone-resistant and methicillin-resistant; same procedure as Test Example 1
Method: as §1, §2

S. aureus OWPH 2127 = test: as above; conditions: Staphylococcus aureus, OWPH2127, 18 h; S. aureus OWPH 2127, new quinolone-resistant and methicillin-resistant; same procedure as Test Example 1
Method: as §1, §2

S. aureus OWPH 2128 = test: as above; conditions: Staphylococcus aureus, OWPH2128, 18 h; S. aureus OWPH 2128, new quinolone-resistant and methicillin-resistant; same procedure as Test Example 1
Method: as §1, §2

S. aureus OWPH 2133 = test: as above; conditions: Staphylococcus aureus, OWPH2133, 18 h; S. aureus OWPH 2133, new quinolone-resistant and methicillin-resistant; same procedure as Test Example 1
Method: as §1, §2

S. aureus OWPH 2134 = test: as above; conditions: Staphylococcus aureus, OWPH2134, 18 h; S. aureus OWPH 2134, new quinolone-resistant and methicillin-resistant; same procedure as Test Example 1
Method: as §1, §2

S. aureus Sh 2 = test: as above; conditions: Staphylococcus aureus, SH2, 18 h; S. aureus Sh 2, new quinolone-resistant and methicillin-resistant; same procedure as Test Example 1
Method: as §1, §2

S. aureus Sh 44 = test: as above; conditions: Staphylococcus aureus, SH44, 18 h; S. aureus Sh 44, new quinolone-resistant and methicillin-resistant; same procedure as Test Example 1
Method: as §1, §2

S. aureus Sh 47 = test: as above; conditions: Staphylococcus aureus, SH47, 18 h; S. aureus Sh 47, new quinolone-resistant and methicillin-resistant; same procedure as Test Example 1
Method: as §1, §2

S. aureus Sh 54 = test: as above; conditions: Staphylococcus aureus, SH54, 18 h; S. aureus Sh 54, new quinolone-resistant and methicillin-resistant; same procedure as Test Example 1
Method: as §1, §2

S. aureus Sh 8 = test: as above; conditions: Staphylococcus aureus, SH8, 18 h; S. aureus Sh 8, new quinolone-resistant and methicillin-resistant; same procedure as Test Example 1
Method: as §1, §2

[10] = Staphylococcus aureus, 209P, 18 h, read-out: MIC
[11] = Staphylococcus aureus, MRSA, 18 h, read-out: MIC

SMILES | MIC [1] | MIC [2] | MIC (Escherichia coli KC-14) | MIC (S. aureus OWPH 1770) | MIC (S. aureus OWPH 1773) | MIC (S. aureus OWPH 1786) | MIC (S. aureus OWPH 1792) | MIC (S. aureus OWPH 1793) | MIC (S. aureus OWPH 1796) | MIC (S. aureus OWPH 1799) | MIC (S. aureus OWPH 2124) | MIC (S. aureus OWPH 2127) | MIC (S. aureus OWPH 2128) | MIC (S. aureus OWPH 2133) | MIC (S. aureus OWPH 2134) | MIC (S. aureus Sh 2) | MIC (S. aureus Sh 44) | MIC (S. aureus Sh 47) | MIC (S. aureus Sh 54) | MIC (S. aureus Sh 8) | further results
CC1Sc2c(C(=O)O)c(=O)c3cc(F)c(N4CCNCC4)cc3n21 (centres unmarked) [Control, 6-fluoro-1-methyl-4-oxo-7-(1-piperazinyl)-4H-[1,3]thiazeto[3,2-a]quinoline-3-carboxylic acid, reference compound] | 0.1 µg/mL (≈ 0.286 µM) | 0.39 µg/mL (≈ 1.12 µM) | 0.012 µg/mL (≈ 0.0343 µM) | 50 µg/mL (≈ 143 µM) | 100 µg/mL (≈ 286 µM) | > 100 µg/mL | 100 µg/mL (≈ 286 µM) | > 100 µg/mL | 25 µg/mL (≈ 71.6 µM) | > 100 µg/mL | 12.5 µg/mL (≈ 35.8 µM) | > 100 µg/mL | > 100 µg/mL | 25 µg/mL (≈ 71.6 µM) | 50 µg/mL (≈ 143 µM) | 100 µg/mL (≈ 286 µM) | 50 µg/mL (≈ 143 µM) | 100 µg/mL (≈ 286 µM) | > 100 µg/mL | 100 µg/mL (≈ 286 µM) | MIC [3]: 1.56 µg/mL (≈ 4.46 µM); MIC (Proteus vulgaris HX-19): 0.025 µg/mL (≈ 0.0716 µM); MIC [4]: 0.05 µg/mL (≈ 0.143 µM); MIC [5, 10]: 0.1 µg/mL (≈ 0.286 µM); MIC [6]: 0.39 µg/mL (≈ 1.12 µM); MIC [7, 11]: 12.5 µg/mL (≈ 35.8 µM); MIC [8]: 0.1 µg/mL (≈ 0.286 µM); MIC [9]: 0.2 µg/mL (≈ 0.572 µM)
CC1Sc2c(C(=O)O)c(=O)c3cc(F)c(-c4ccc(N)cc4)cc3n21 (centres unmarked) [Example 4, 7-(4-Aminophenyl)-6-fluoro-1-methyl-4-oxo-4H-[1,3]thia-zeto[3,2-a]quinoline-3-carboxylic acid] | ≤ 0.006 µg/mL | 0.05 µg/mL (≈ 0.14 µM) | 0.025 µg/mL (≈ 0.0702 µM) | 0.2 µg/mL (≈ 0.561 µM) | 0.78 µg/mL (≈ 2.19 µM) | 1.56 µg/mL (≈ 4.38 µM) | 0.78 µg/mL (≈ 2.19 µM) | 1.56 µg/mL (≈ 4.38 µM) | 0.78 µg/mL (≈ 2.19 µM) | 1.56 µg/mL (≈ 4.38 µM) | 0.78 µg/mL (≈ 2.19 µM) | 1.56 µg/mL (≈ 4.38 µM) | 1.56 µg/mL (≈ 4.38 µM) | 0.78 µg/mL (≈ 2.19 µM) | 0.78 µg/mL (≈ 2.19 µM) | 0.78 µg/mL (≈ 2.19 µM) | 0.78 µg/mL (≈ 2.19 µM) | 0.78 µg/mL (≈ 2.19 µM) | 0.78 µg/mL (≈ 2.19 µM) | 0.78 µg/mL (≈ 2.19 µM) | MIC [3]: 0.2 µg/mL (≈ 0.561 µM); MIC (Proteus vulgaris HX-19): 0.012 µg/mL (≈ 0.0337 µM); MIC [4]: 0.1 µg/mL (≈ 0.281 µM); MIC [5]: 0.012 μ g/ml; MIC [6]: ≤ 0.006 µg/mL; MIC [7]: ≤ 0.006 μ g/ml; MIC [8]: ≤ 0.006 µg/mL; MIC [9]: ≤ 0.006 µg/mL
CC1Sc2c(C(=O)O)c(=O)c3cc(F)c(-c4ccc(N)cc4)c(F)c3n21 (centres unmarked) [Example 25, 7-(4-Aminophenyl)-6,8-difluoro-1-methyl-4-oxo-4H-[1,3]thiazeto[3,2-a]quinoline-3-carboxylic acid] | ≤ 0.006 µg/mL | 0.05 µg/mL (≈ 0.134 µM) | 0.05 µg/mL (≈ 0.134 µM) | 0.1 µg/mL (≈ 0.267 µM) | 0.2 µg/mL (≈ 0.534 µM) | 0.39 µg/mL (≈ 1.04 µM) | 0.39 µg/mL (≈ 1.04 µM) | 0.39 µg/mL (≈ 1.04 µM) | 0.2 µg/mL (≈ 0.534 µM) | 0.39 µg/mL (≈ 1.04 µM) | 0.39 µg/mL (≈ 1.04 µM) | 0.39 µg/mL (≈ 1.04 µM) | 0.39 µg/mL (≈ 1.04 µM) | 0.39 µg/mL (≈ 1.04 µM) | 0.2 µg/mL (≈ 0.534 µM) | 0.39 µg/mL (≈ 1.04 µM) | 0.2 µg/mL (≈ 0.534 µM) | 0.39 µg/mL (≈ 1.04 µM) | 0.2 µg/mL (≈ 0.534 µM) | 0.2 µg/mL (≈ 0.534 µM) | MIC [3]: 0.2 µg/mL (≈ 0.534 µM); MIC (Proteus vulgaris HX-19): 0.025 µg/mL (≈ 0.0668 µM); MIC [4]: 0.2 µg/mL (≈ 0.534 µM); MIC [5, 10]: ≤ 0.006 µg/mL; MIC [6]: 0.012 µg/mL (≈ 0.0321 µM); MIC [7, 11]: 0.012 µg/mL (≈ 0.0321 µM); MIC [8]: ≤ 0.006 µg/mL; MIC [9]: 0.006 µg/mL (≈ 0.016 µM)
NC1CCN(c2nc3c(cc2F)c(=O)c(C(=O)O)cn3-c2ccc(F)cc2F)C1 (centres unmarked) [TFLX, tosufloxacin, reference compound] |  |  |  | > 100 µg/mL | > 100 µg/mL | > 100 µg/mL | > 100 µg/mL | > 100 µg/mL | > 100 µg/mL | > 100 µg/mL | 12.5 µg/mL (≈ 30.9 µM) | > 100 µg/mL | > 100 µg/mL | > 100 µg/mL | > 100 µg/mL | > 100 µg/mL | > 100 µg/mL | > 100 µg/mL | > 100 µg/mL | > 100 µg/mL | 
